Values quoted from earlier work as cited in patent US12151062B2, “Compositions and devices to administer pharmaceutical compositions nasally” (BOARD OF REGENTS, THE UNIVERSITY OF TEXAS SYSTEM, priority 2016, dated 2024).
Where two headings read alike, the source gives them in different places. Each block holds one compound with its values, some of them ahead of it.

Tests used:
[1] = for DTE relative to nasal solution alone: mucoadhesive microemulsion i.n.
[2] = thermoreversible gel with chitosan and glycerophosphate
brain tumor = conditions: mucoadhesive solution i.n.; rats pre-dosed with acetazolamide
[3] = PLGA nanoparticles
[4] = not given; remark: listed apart in the source
[5] = thermosensitive gel i.n. compared to nasal solution in normal saline; rabbits
[6] = mice
[7] = test system: P3 component of the event-related potentials; conditions: human subjects
[8] = not given; remark: listed apart in the source
[9] = nasal administration with vasoconstrictor phenylephrine

Compound: O=c1[nH]cc(F)c(=O)[nH]1 [5-FU]
CSF levels with vs without pre-administration of acetazolamide ([1]; nasal delivery, rats): significantly higher CSF levels
increased brain uptake compared to i.v. ([1]; solution i.n., rats pre-dosed with acetazolamide): 104%

Compound: CC(C)C[C@H]1C(=O)N2CCC[C@H]2[C@]2(O)O[C@](NC(=O)[C@@H]3C=C4c5cccc6[nH]c(Br)c(c56)C[C@H]4N(C)C3)(C(C)C)C(=O)N12 [Bromocriptine]
brain AUCs compared to intravenous administration of the nanoparticles (mouse, in vivo): over two-fold greater
brain and plasma AUC values (mouse, in vivo): higher

Compound: NC(=O)N1c2ccccc2C=Cc2ccccc21 [Carbamazepine]
brain levels in the intranasal group ([1]; even at early time points, vs intravenous solution): unable to detect significantly higher brain levels
brain AUC-to-plasma AUC ratio compared to intravenous therapy ([1]; hypromellose and Carbopol 974P gel i.n.): 4.31 times
systemic bioavailability ([1]; intranasal formulation compared to intravenous carbamazepine solution): 100%
DTE (thermoreversible gel i.n., mice): DTE - 0.98

Compound: COc1cc(/C=C/C(=O)CC(=O)/C=C/c2ccc(O)c(OC)c2)ccc1O [Curcumin]
brain AUC compared to curcumin injection ([1]; in situ gelling microemulsion i.n.): three times

Compound: CN(C)CCC=C1c2ccccc2COc2ccccc21 [Doxepin]
duration of immobility, forced swim test [2]: no significant difference

Compound: CNCC[C@H](Oc1cccc2ccccc12)c1cccs1 [Duloxetine]
brain concentrations compared to intravenous administration of duloxetine solution ([1]; lipid nanocarrier i.n.): about eight times higher
DTE ([1]; lipid nanocarrier i.n., rats): 757.14%
DTE ([1]; lipid nanocarrier i.n., rats, listed as duloxetine): 757.14%
DTE ([1]; solution i.n., rats): to 287.34%
DTE ([1]; solution i.n., rats, listed as duloxetine): 287.34%

Compound: C[C@]12CC[C@@H]3c4ccc(O)cc4CC[C@H]3[C@@H]1CC[C@@H]2O [Estradiol]
AUCCSF/AUCplasma ([1]; cyclodextrin formulation i.n., rats): 1.60
AUCCSF/AUCplasma ([1]; i.v., rats): 0.61 from

Compound: CN(Cc1cnc2nc(N)nc(N)c2n1)c1ccc(C(=O)N[C@@H](CCC(=O)O)C(=O)O)cc1 [Methotrexate]
increase in uptake compared to i.n. without acetazolamide ([1]; mucoadhesive solution i.n., rats pre-dosed with acetazolamide): 195%
CSF AUC after nasal administration compared to intravenous administration ([1]; rat, in vivo, iv): greater than 13 fold
DTE ([1]; solution i.n., rats): DTE- 21.7%
reduction in brain tumor weight (brain tumor): 75%

Compound: Cc1cc2c(s1)Nc1ccccc1N=C2N1CCN(C)CC1 [Olanzapine]
DTE ([1]; i.n. solution, rats): to 550%
DTE ([1]; mucoadhesive nanoemulsion i.n., rats): DTE-890%
DTE ([1]; nanomicellar carrier i.n., rats): 520.26%
diffusion through sheep nasal mucosa, ex vivo [3]: slower

Compound: Cc1nc2n(c(=O)c1CCN1CCC(c3noc4cc(F)ccc34)CC1)CCCC2 [Risperidone]
plasma AUC after intranasal administration vs intravenous (SLNs): lower
locomotor activity ([6]; any of the tested formulations): significantly reduced
locomotor activity compared to nanoemulsion given intravenously ([6]; nanoemulsion and mucoadhesive nanoemulsion given intranasally): significant reduction

Compound: NC(=O)CC[C@@H]1NC(=O)[C@H](Cc2ccccc2)NC(=O)[C@H](Cc2ccc(O)cc2)NC(=O)[C@@H](N)CSSC[C@@H](C(=O)N2CCC[C@H]2C(=O)N[C@@H](CCCN=C(N)N)C(=O)NCC(N)=O)NC(=O)[C@H](CC(N)=O)NC1=O [arginine vasopressin]
P3 component of event-related potentials ([7]; after intranasal administration): significant increase
plasma concentrations after intravenous administration compared to intranasal use [7]: higher
P3 component of event-related potentials ([7]; intravenous administration, compared to placebo): did not show significant differences

Compound: GDF-5: growth differentiation factor 5
midbrain concentrations compared to acidic solution ([1]; rat, in vivo): Significantly higher midbrain concentrations compared to acidic solution

Compound: L-Tyr-D Arg
amount delivered to the olfactory bulb [8, 9]: significantly increased
amount in the trigeminal nerve [8, 9]: decreased amount
amount of drug absorbed into the systemic circulation [8, 9]: significantly decreased
decrease in whole brain concentrations [8, 9]: about 50%

Compound: hypocretin-1 (QPLPDCCRQKTCSCRLYELLHGAGNHAAGILTL; Orexin-A; UniProt O43612 34-66, looked up)
amount delivered to the olfactory bulb ([8]; in vivo): significantly increased
amount in the trigeminal nerve ([8]; in vivo): decreased amount
amount of drug absorbed into the systemic circulation ([8]; in vivo): significantly decreased
decrease in whole brain concentrations ([8]; in vivo): about 50%

Compound: vasoactive intestinal peptide
brain levels compared to solution given intranasally ([8]; in vivo): 5.6-7.7 fold
brain levels compared to unmodified nanoparticles ([8]; in vivo): higher brain levels

Now from value to compound, other results behind:

AUC in olfactory bulb after i.n. compared with i.v. treatment ([1]; microemulsion, rats): Higher AUC
AUC in rest of brain after i.n. compared with i.v. treatment ([1]; microemulsion, rats): lower AUC
Compound: COCCOC(=O)C1=C(C)NC(C)=C(C(=O)OC(C)C)C1c1cccc([N+](=O)[O-])c1 (stereo not drawn) [Nimodipine]

brain AUCs compared to intravenous administration of the microemulsion ([1]; intranasal mucoadhesive microemulsion, rats): 2.43 times
DTE ([1]; mucoadhesive microemulsion (polycarbophil) i.n., rats): 320.69%;
DTE ([1]; mucoadhesive microemulsion (polycarbophil) i.n., rats, listed as paliperidone): 320.69%
DTE relative to nasal solution alone ([1]; rats): 1.74-fold
DTE relative to nasal solution alone ([1]; rats, listed as paliperidone): 1.74 fold
Compound: Cc1nc2n(c(=O)c1CCN1CCC(c3noc4cc(F)ccc34)CC1)CCCC2O (stereo not drawn) [Paliperidone]

log P [4]: −0.98
increase in the AUC after intranasal use compared to intravenous use ([1]; depending on the section of brain, rats): 54-121 fold
DTE for Cerebrum ([1]; solution (PBS pH 8) i.n., rats): 120
DTE for Olfactory Bulb ([1]; solution (PBS pH 8) i.n., rats): 127
Compound: Cc1nc2ccc(CN(C)c3ccc(C(=O)N[C@@H](CCC(=O)O)C(=O)O)s3)cc2c(=O)[nH]1 [Raltitrexed]

brain uptake from gel formulations [5]: significantly higher brain uptake
Compound: C#CCN[C@@H]1CCc2ccccc21 [Rasagiline]

DTE ([1]; temperature sensitive in situ gel with chitosan and HPMC i.n., rats): DTE-10.4
Compound: CCCN(CCC)CCc1cccc2c1CC(=O)N2 [Ropinirole]

direct transport efficiency (DTE) (mouse, in vivo): 207.23
Compound: Nc1c2c(nc3ccccc13)CCCC2 [Tacrine]

brain concentrations 30 minutes after administration ([1]; micellar formulation i.n., rats): about fivefold higher
Compound: CN(C)CCc1c[nH]c2ccc(C[C@H]3COC(=O)N3)cc12 [Zolmitriptan]
brain concentrations, 30 min up to 120 min ([1]; micellar nanocarrier i.n., rats): significantly higher brain concentrations up to 120 minutes

brain concentrations compared to unmodified PEG-PLA nanoparticles i.n. ([8]; wheat germ agglutinin conjugated PEG-PLA nanoparticles i.n.): two-fold increase
Compound: O=c1ccc2ccccc2o1 [coumarin]

brain concentrations compared to nerve growth factor dosed at the same concentration ([1]; intranasal): fivefold higher
Compound: NCCc1ccc(O)c(O)c1 [dopamine]
